Experimental data from PMC9230671, “Fluorochrome Selection for Imaging Intraoperative Ovarian Cancer Probes” (Pharmaceuticals, 2022).
Where a name gives a salt, the structure may show the parent alone. Marks after values point to notes of the source that are not given here.

Tests used:
COX-1 = target: T1, COX-1 (Ovis aries, UniProt P05979); experiment: COX-1 inhibition, COX (ovine/human) inhibitor screening assay kit; type: biochemical; conditions: for inhibition at 50 µM: at 50 µM compound final concentration, read-out: COX-1 % inhib.
T1 construct: purchased Cayman Chemicals (bought through Sigma-Aldrich) 560131
T1 sequence (P05979 25-600): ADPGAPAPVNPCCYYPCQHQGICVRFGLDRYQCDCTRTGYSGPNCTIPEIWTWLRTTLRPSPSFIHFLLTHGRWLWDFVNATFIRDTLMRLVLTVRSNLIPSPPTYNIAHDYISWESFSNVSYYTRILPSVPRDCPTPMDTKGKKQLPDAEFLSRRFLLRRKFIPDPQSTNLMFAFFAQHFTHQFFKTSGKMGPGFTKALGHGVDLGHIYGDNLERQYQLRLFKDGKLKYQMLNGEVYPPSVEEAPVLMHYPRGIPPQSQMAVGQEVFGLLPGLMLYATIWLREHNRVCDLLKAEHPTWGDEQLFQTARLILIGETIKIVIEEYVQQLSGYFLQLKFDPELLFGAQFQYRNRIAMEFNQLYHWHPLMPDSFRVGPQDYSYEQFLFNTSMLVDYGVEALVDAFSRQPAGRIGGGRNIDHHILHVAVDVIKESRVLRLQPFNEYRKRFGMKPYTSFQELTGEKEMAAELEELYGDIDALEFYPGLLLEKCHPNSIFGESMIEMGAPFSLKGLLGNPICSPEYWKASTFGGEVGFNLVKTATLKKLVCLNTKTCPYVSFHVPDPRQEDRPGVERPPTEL
Experimental: (§1) Cell culture reagents were purchased from Euroclone (Milan, Italy). COX (ovine/human) inhibitor screening assay kit (Catalog No. 560131, Cayman Chemicals, Ann Arbor, MI, USA) was purchased from Sigma-Aldrich, Burlington, MA, USA. […] The other reagents were purchased from Sigma-Aldrich, Burlington, MA, USA.
(§2) The COX-1/2 inhibition screening experiments were carried out according to the manufacturer’s instructions. The plate was incubated for 60 min at r.t. under shaking and read with the Tecan Infinite 200 Microplate Reader at λ = 405 nm.
(§3) The graph between percent inhibition of the enzyme and corresponding concentration of the compound provided IC50 values for the probe compounds.

COX-2 = target: T2, COX-2 (Homo sapiens, UniProt P35354); experiment: COX-2 inhibition, COX (ovine/human) inhibitor screening assay kit; type: biochemical; conditions: for COX-2 inhibitory activity (in words): up to 50 µM final concentration
T2 construct: purchased Cayman Chemicals (bought through Sigma-Aldrich) 560131
T2 sequence (P35354 18-604): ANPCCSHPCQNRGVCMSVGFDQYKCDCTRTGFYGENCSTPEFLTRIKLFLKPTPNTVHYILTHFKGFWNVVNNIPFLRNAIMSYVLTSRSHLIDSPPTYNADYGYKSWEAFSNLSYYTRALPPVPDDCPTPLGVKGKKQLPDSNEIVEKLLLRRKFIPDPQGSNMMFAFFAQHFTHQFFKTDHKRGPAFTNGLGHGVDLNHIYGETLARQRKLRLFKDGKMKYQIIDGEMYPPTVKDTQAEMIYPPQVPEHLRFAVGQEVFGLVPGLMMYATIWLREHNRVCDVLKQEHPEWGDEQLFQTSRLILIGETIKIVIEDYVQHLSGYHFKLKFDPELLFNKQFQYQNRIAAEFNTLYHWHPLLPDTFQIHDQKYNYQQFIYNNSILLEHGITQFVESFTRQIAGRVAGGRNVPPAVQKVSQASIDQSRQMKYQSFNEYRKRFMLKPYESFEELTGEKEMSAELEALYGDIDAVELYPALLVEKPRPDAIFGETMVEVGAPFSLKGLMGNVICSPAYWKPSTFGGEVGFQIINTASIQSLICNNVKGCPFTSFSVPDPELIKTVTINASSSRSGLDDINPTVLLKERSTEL
Experimental: as §1, §2, §3

[1] = Fluorescence property measurements (absorption/emission spectra); type: physicochemical; parameters: Stokes Shift: unit not given here
Experimental: The λabs and λem, of the target compounds were measured in aqueous solution (phosphate-buffered saline solution, PBS) at the concentration of 10^−5 M (Table 1).
Fluorescence spectra of all target compounds were determined in PBS and EtOH solutions (Table 1) with a Tecan Infinite 200 Microplate Reader. In all experiments, the excitation and the emission bandpass were set at λ = 5 nm. The emission spectra were obtained from λ = 280 to 850 nm, with excitation set at the appropriate excitation wavelength. Absorption spectra were recorded with a Shimadzu UV-1800 spectrophotometer.

[2] = Solubility in PBS (remark); type: physicochemical
Description: Despite of the solvent, the Stokes shift was very low with this fluorophore.

| Structure (SMILES) | IC50 (COX-1) | SI (selectivity index) (COX-1) | inhibition at 50 µM (COX-1) | IC50 (COX-2) | Stokes Shift ([1]; PBS solution, 10^−5 M) | λabs ([1]; PBS solution, 10^−5 M) | λem ([1]; PBS solution, 10^−5 M) | melting point | COX-1 inhibitory activity (in words) (COX-1) | COX-2 inhibitory activity (in words) (COX-2) | Stokes Shift ([1]; ethanol (10^−5 M)) | λabs ([1]; ethanol (10^−5 M)) | λem ([1]; ethanol (10^−5 M)) | solubility in PBS [2] |
| --- | --- | --- | --- | --- | --- | --- | --- | --- | --- | --- | --- | --- | --- | --- |
| COc1ccc(-c2noc(CC(=O)NCCCCCCCCCCCCNS(=O)(=O)c3cccc4c(N(C)C)cccc34)c2-c2ccc(OC)cc2)cc1 [Compound 6b, 2-[3,4-Bis(4-methoxyphenyl)-5-yl]-N-{4-[(5-dimethylaminonaphthalene)-1-sulfonamido]dodecyl}acetamide] | 0.1 µM | > 500 | 71% | > 50 µM | 222 | 270 nm | 492 nm | 126 to 129 °C | – | – | – | – | – | – |
| COc1ccc(-c2noc(CC(=O)NCCCCNS(=O)(=O)c3cccc4c(N(C)C)cccc34)c2-c2ccc(OC)cc2)cc1 [Compound 3a, 2-[3,4-Bis(4-methoxyphenyl)isoxazol-5-yl]-N-{4-[(5-dimethylaminonaphthalene)-1-sulfonamido]butyl}acetamide] | > 50 µM | – | 45% | > 50 µM | 264 | 230 nm | 494 nm | 69 to 71 °C | almost inactive | almost inactive | – | – | – | – |
| CCCN1C(=O)c2cccc3c(Nc4ccc(NC(=O)Cc5onc(-c6ccc(OC)cc6)c5-c5ccc(OC)cc5)cc4)ccc(c23)C1=O [Compound 17b, 2-(3,4-Bis(4-methoxyphenyl)isoxazol-5-yl)-N-(4-((1,3-dioxo-2-propyl-2,3-dihydro-1H-benzo[de]isoquinolin-6-yl)amino)phenyl)acetamide] | 0.15 µM | > 333 | 49% | > 50 µM | – | – | – | 112 to 115 °C | – | almost inactive | 92 | 450 ^b nm | 542 ^b nm | low solubility |
| COc1ccc(-c2noc(CC(=O)NCCCCCCCCCCCCNc3ccc([N+](=O)[O-])c4nonc34)c2-c2ccc(OC)cc2)cc1 [Compound 13c, 2-(3,4-Bis(4-methoxyphenyl)isoxazol-5-yl)-N-(12-((7-nitrobenzo[c][1,2,5]oxadiazol-4-yl)amino)dodecyl)acetamide] | > 50 µM | – | 28% | > 50 µM | 55 | 495 nm | 550 nm | – | – | – | – | – | – | – |
| COc1ccc(-c2noc(CC(=O)Nc3ccc(NC(=O)CCCCCCCCCCNS(=O)(=O)c4cccc5c(N(C)C)cccc45)cc3)c2-c2ccc(OC)cc2)cc1 [Compound 9] | 0.7 µM | > 71 | 83% | > 50 µM | 222 | 274 nm | 496 nm | 140 to 143 °C | – | – | – | – | – | – |
| CCN1/C(=C/C=C/C=C/C=C/C2=[N+](CCCCCC(=O)NCCCCNC(=O)Cc3onc(-c4ccc(OC)cc4)c3-c3ccc(OC)cc3)c3ccc4ccccc4c3C2(C)C)C(C)(C)c2c1ccc1ccccc21 (as salt: chloride) [23 (MSA14), 3-(6-(4-(2-(3,4-Bis(4-methoxyphenyl)isoxazole-5-yl)acetamido)butyl)amino-6-oxohexyl)-2-[7-(1,3-dihydro-1,1-dimethyl-3-ethyl-2H-benz[e]indolin-2-yl-idene)-1,3,5-heptatrienyl]-1,1-dimethyl-3-(6-carboxilato-hexyl)-1H-benz[e]indolium chloride] | – | – | – | – | – | – | – | 220 °C (dec.) | – | – | – | – | – | – |
| COc1ccc(-c2noc(CC(=O)NCCCCNc3ccc([N+](=O)[O-])c4nonc34)c2-c2ccc(OC)cc2)cc1 [Compound 13a, 2-(3,4-Bis(4-methoxyphenyl)isoxazol-5-yl)-N-(4-((7-nitrobenzo[c][1,2,5]oxadiazol-4-yl)amino)butyl)acetamide] | > 50 µM | – | 0% | > 50 µM | 82 | 482 nm | 564 nm | 165 °C (dec.) | – | – | – | – | – | – |
| COc1ccc(-c2noc(CC(=O)NCCCCCCNc3ccc([N+](=O)[O-])c4nonc34)c2-c2ccc(OC)cc2)cc1 [Compound 13b, 2-(3,4-Bis(4-methoxyphenyl)isoxazol-5-yl)-N-(6-((7-nitrobenzo[c][1,2,5]oxadiazol-4-yl)amino)hexyl)acetamide] | > 50 µM | – | 26% | > 50 µM | 64 | 490 nm | 554 nm | – | – | – | – | – | – | – |
| COc1ccc(-c2noc(CC(=O)Nc3ccc(NS(=O)(=O)c4cccc5c(N(C)C)cccc45)cc3)c2-c2ccc(OC)cc2)cc1 [Compound 3b, 2-[3,4-Bis(4-methoxyphenyl)isoxazol-5-yl]-N-{4-[(5-dimethylaminonaphthalene)-1-sulfonamido]phenyl}acetamide] | 0.05 µM | > 1000 | 44% | > 50 µM | 154 | 360 nm | 514 nm | 120 to 122 °C | – | – | – | – | – | – |
| COc1ccc(-c2noc(CC(=O)NCCCCCCNS(=O)(=O)c3cccc4c(N(C)C)cccc34)c2-c2ccc(OC)cc2)cc1 [Compound 6a] | 12 µM | > 4 | 74% | > 50 µM | – | – | – | 66 to 69 °C | – | – | 273 | 248 ^b nm | 521 ^b nm | – |
| CCCN1C(=O)c2cccc3c(NCCCCCCNC(=O)Cc4onc(-c5ccc(OC)cc5)c4-c4ccc(OC)cc4)ccc(c23)C1=O [Compound 17a, 2-(3,4-Bis(4-methoxyphenyl)isoxazol-5-yl)-N-(6-((1,3-dioxo-2-propyl-2,3-dihydro-1H-benzo[de]isoquinolin-6-yl)amino)hexyl)acetamide] | 0.08 µM | > 625 | 51% | > 50 µM | 96 | 450 nm | 546 nm | 110 to 111 °C | – | almost inactive | – | – | – | – |
| COc1ccc(-c2noc(CC(=O)Nc3ccc(-c4ccc(NS(=O)(=O)c5cccc6c(N(C)C)cccc56)cc4)cc3)c2-c2ccc(OC)cc2)cc1 [Compound 3c, 2-[3,4-Bis(4-methoxyphenyl)isoxazol-5-yl]-N-{4-[(5-dimethylaminonaphthalene)-1-sulfonamido]biphenyl}acetamide] | 0.06 µM | > 833 | 71% | > 50 µM | 217 | 287 nm | 504 nm | 240 to 241 °C | – | – | – | – | – | – |
